According to ChEMBL document CHEMBL4513141, “CO-ADD screening of NIH (USA) - Clinical Collection” (2021):
Converted amounts (≈) assume the structure as drawn. Structures can show the parent of a compound that is named as a salt.

Tests used:
[1] = test system: Candida albicans; assay: microbe, parasite or virus in culture; details: ATCC 90028, ASSAY_TEST Inhibition of Fungal Growth, detection method Absorption (OD530), plate type 384well, NBS, CORNING #3640
Description: Antifungal activity against Candida albicans ATCC 90028 (CO-ADD:FG_001); MIC in YNB media using NBS plates, by OD630

[2] = test system: Pseudomonas aeruginosa; assay: microbe, parasite or virus in culture; details: ATCC 27853, 18 h, ASSAY_TEST Inhibition of Bacterial Growth, detection method Absorption (OD600), MEDIA CAMHB, plate type 384well, NBS, CORNING #3640
Description: Antibacterial activity against Pseudomonas aeruginosa ATCC 27853 (CO-ADD:GN_042); MIC in CAMBH media using NBS plates, by OD(600)

[3] = test system: HEK293; assay: cells; assay type: functional, Homo sapiens, ATCC CRL1573; details: ASSAY_TEST Inhibition of Cell Viability, detection method Resazurin, Fluorescence (ex560/em590), MEDIA DMEM with 10% FBS, plate type 384well, TC, CORNING #3712, time 18 hr
[4] = test system: Acinetobacter baumannii; assay: microbe, parasite or virus in culture; details: ATCC 19606, 18 h, ASSAY_TEST Inhibition of Bacterial Growth, detection method Absorption (OD600), MEDIA CAMHB, plate type 384well, NBS, CORNING #3640
Description: Antibacterial activity against Acinetobacter baumannii ATCC 19606 (CO-ADD:GN_034); MIC in CAMBH media using NBS plates, by OD600

[5] = test system: Staphylococcus aureus; assay: microbe, parasite or virus in culture; details: ATCC 43300, 18 h, ASSAY_TEST Inhibition of Bacterial Growth, detection method Absorption (OD600), MEDIA CAMHB, plate type 384well, NBS, CORNING #3640
Description: Antibacterial activity against Staphylococcus aureus MRSA ATCC 43300 (CO-ADD:GP_020); MIC in CAMBH media, using NBS plates, by OD(600)

[6] = test system: Escherichia coli; assay: microbe, parasite or virus in culture; details: ATCC 25922, 18 h, ASSAY_TEST Inhibition of Bacterial Growth, detection method Absorption (OD600), MEDIA CAMHB, plate type 384well, NBS, CORNING #3640
Description: Antibacterial activity against Escherichia coli ATCC 25922 (CO-ADD:GN_001); MIC in CAMBH media using NBS plates, by OD(600)

[7] = test system: Klebsiella pneumoniae; assay: microbe, parasite or virus in culture; details: ATCC 700603, 18 h, ASSAY_TEST Inhibition of Bacterial Growth, detection method Absorption (OD600), MEDIA CAMHB, plate type 384well, NBS, CORNING #3640
Description: Antibacterial activity against Klebsiella pneumoniae MDR ATCC 70063 (CO-ADD:GN_003); MIC in CAMBH media using NBS plates, by OD(600)

[8] = test system: Cryptococcus neoformans
Description: Antifungal activity against Cryptococcus neoformans H99 ATCC 208821 (CO-ADD:FG_002); MIC in YNB media using NBS plates, by Resazurin OD(600-570)

[9] = Homo sapiens, ATCC CRL1573, HEK293

SMILES | MIC [1] | MIC [2] | CC50 [3, 9] | MIC [4] | MIC [5] | MIC [6] | MIC [7] | MIC [8] | CC50 [3]
CN(C)[C@@H]1C(=O)C(C(N)=O)=C(O)[C@@]2(O)C(O)=C3C(=O)c4c(O)cccc4[C@@](C)(O)[C@H]3[C@H](O)[C@@H]12 | > 10 µM | 10 µM (≈ 4.6 µg/mL) | > 10 µM | > 10 µM | 1.25 µM (≈ 0.576 µg/mL) | 5 µM (≈ 2.3 µg/mL) | > 10 µM | > 10 µM | –
CON=C(C(=O)NC1C(=O)N2C(C(=O)O)=C(COC(C)=O)CSC12)c1csc(N)n1 (stereo unspecified) | > 10 µM | > 10 µM | > 10 µM | > 10 µM | > 10 µM | 0.312 µM (≈ 0.142 µg/mL) | > 10 µM | > 10 µM | –
CC1c2cccc(O)c2C(=O)C2=C(O)C3(O)C(O)=C(C(N)=O)C(=O)C(N(C)C)C3C(O)C21 (stereo unspecified) | > 10 µM | 0.312 µM (≈ 0.139 µg/mL) | > 10 µM | > 10 µM | 0.625 µM (≈ 0.278 µg/mL) | 1.25 µM (≈ 0.556 µg/mL) | > 10 µM | > 10 µM | –
C[C@H]1O[C@H](O[C@H]2[C@H](O)[C@@H](O)[C@@H](O[C@H]3[C@H](O)[C@@H](O)C(O)O[C@@H]3CO)O[C@@H]2CO)[C@H](O)[C@@H](O)[C@@H]1N[C@H]1C=C(CO)[C@@H](O)[C@H](O)[C@H]1O (stereo partly specified) [ACARBOSE] | > 10 µM | > 10 µM | > 10 µM | > 10 µM | > 10 µM | > 10 µM | > 10 µM | > 10 µM | –
Nc1ncn([C@@H]2O[C@H](CO)[C@@H](O)[C@H]2O)c(=O)n1 [AZACITIDINE] | > 10 µM | > 10 µM | > 10 µM | > 10 µM | > 10 µM | 10 µM (≈ 2.44 µg/mL) | > 10 µM | > 10 µM | –
CC[C@H]1OC(=O)[C@H](C)[C@@H](O[C@H]2C[C@@](C)(OC)[C@@H](O)[C@H](C)O2)[C@H](C)[C@@H](O[C@@H]2O[C@H](C)C[C@H](N(C)C)[C@H]2O)[C@](C)(O)C[C@@H](C)CN(C)[C@H](C)[C@@H](O)[C@]1(C)O [AZITHROMYCIN] | > 10 µM | 10 µM (≈ 7.49 µg/mL) | > 10 µM | > 10 µM | > 10 µM | 10 µM (≈ 7.49 µg/mL) | > 10 µM | > 10 µM | –
CCc1oc2ccccc2c1C(=O)c1cc(Br)c(O)c(Br)c1 [BENZBROMARONE] | > 10 µM | > 10 µM | > 10 µM | > 10 µM | > 10 µM | > 10 µM | > 10 µM | > 10 µM | –
c1ccc(-c2ccc(C(c3ccccc3)n3ccnc3)cc2)cc1 (stereo unspecified) [BIFONAZOLE] | > 10 µM | > 10 µM | > 10 µM | > 10 µM | > 10 µM | > 10 µM | > 10 µM | 10 µM (≈ 3.1 µg/mL) | –
CCCCCCNC(=O)n1cc(F)c(=O)[nH]c1=O [CARMOFUR] | > 10 µM | > 10 µM | > 10 µM | > 10 µM | 2.5 µM (≈ 0.643 µg/mL) | > 10 µM | > 10 µM | 5 µM (≈ 1.29 µg/mL) | –
N[C@@H](C(=O)N[C@@H]1C(=O)N2C(C(=O)O)=C(Cl)CS[C@H]12)c1ccccc1 [CEFACLOR ANHYDROUS] | > 10 µM | > 10 µM | > 10 µM | > 10 µM | > 10 µM | > 10 µM | > 10 µM | > 10 µM | –
CO[C@@]1(NC(=O)Cc2cccs2)C(=O)N2C(C(=O)O)=C(COC(N)=O)CS[C@@H]21 [CEFOXITIN SODIUM] | > 10 µM | > 10 µM | > 10 µM | > 10 µM | > 10 µM | 10 µM | > 10 µM | > 10 µM | –
COCc1c(C(C)C)nc(C(C)C)c(/C=C/[C@@H](O)C[C@@H](O)CC(=O)O)c1-c1ccc(F)cc1 [CERIVASTATIN SODIUM] | 5 µM | > 10 µM | > 10 µM | > 10 µM | > 10 µM | > 10 µM | > 10 µM | 5 µM | –
Oc1c(Cl)cc(Cl)c2cccnc12 [CHLOROXINE] | 1.25 µM (≈ 0.268 µg/mL) | > 10 µM | > 10 µM | > 10 µM | > 10 µM | > 10 µM | > 10 µM | 2.5 µM (≈ 0.535 µg/mL) | –
CC[C@H]1OC(=O)[C@H](C)[C@@H](O[C@H]2C[C@@](C)(OC)[C@@H](O)[C@H](C)O2)[C@H](C)[C@@H](O[C@@H]2O[C@H](C)C[C@H](N(C)C)[C@H]2O)[C@](C)(OC)C[C@@H](C)C(=O)[C@H](C)[C@@H](O)[C@]1(C)O [CLARITHROMYCIN] | > 10 µM | 10 µM (≈ 7.48 µg/mL) | > 10 µM | > 10 µM | > 10 µM | > 10 µM | > 10 µM | > 10 µM | –
CC(C)/N=c1\cc2n(-c3ccc(Cl)cc3)c3ccccc3nc-2cc1Nc1ccc(Cl)cc1 [CLOFAZIMINE] | > 10 µM | > 10 µM | – | > 10 µM | > 10 µM | > 10 µM | > 10 µM | > 10 µM | 0.31 µM
Clc1ccccc1C(c1ccccc1)(c1ccccc1)n1ccnc1 [CLOTRIMAZOLE] | 0.156 µM (≈ 0.0539 µg/mL) | > 10 µM | > 10 µM | > 10 µM | > 10 µM | > 10 µM | > 10 µM | 1.25 µM (≈ 0.431 µg/mL) | –
O=c1[nH]cnc2c1ncn2[C@H]1CC[C@@H](CO)O1 [DIDANOSINE] | > 10 µM | > 10 µM | > 10 µM | > 10 µM | > 10 µM | > 10 µM | > 10 µM | > 10 µM | –
COc1cccc2c1C(=O)c1c(O)c3c(c(O)c1C2=O)C[C@@](O)(C(=O)CO)C[C@@H]3O[C@H]1C[C@H](N)[C@H](O)[C@H](C)O1 [DOXORUBICIN HYDROCHLORIDE] | > 10 µM | > 10 µM | > 10 µM | > 10 µM | 10 µM | > 10 µM | > 10 µM | > 10 µM | –
O=c1c2ccccc2[se]n1-c1ccccc1 [EBSELEN] | 5 µM (≈ 1.37 µg/mL) | > 10 µM | > 10 µM | > 10 µM | > 10 µM | > 10 µM | > 10 µM | 2.5 µM (≈ 0.685 µg/mL) | –
CCN1CCN(c2cc3c(cc2F)c(=O)c(C(=O)O)cn3C2CC2)CC1 [ENROFLOXACIN] | > 10 µM | 0.312 µM (≈ 0.112 µg/mL) | > 10 µM | 5 µM (≈ 1.8 µg/mL) | 0.312 µM (≈ 0.112 µg/mL) | ≤ 0.0781 µM | 2.5 µM (≈ 0.899 µg/mL) | > 10 µM | –
COc1cccc2c1C(=O)c1c(O)c3c(c(O)c1C2=O)C[C@@](O)(C(=O)CO)C[C@@H]3O[C@H]1C[C@H](N)[C@@H](O)[C@H](C)O1 [EPIRUBICIN HYDROCHLORIDE] | > 10 µM | > 10 µM | 1.14 µM | > 10 µM | 10 µM | > 10 µM | > 10 µM | > 10 µM | –
COC(=O)Nc1nc2cc(C(=O)c3ccc(F)cc3)ccc2[nH]1 [FLUBENDAZOLE] | > 10 µM | > 10 µM | 7.02 µM | > 10 µM | > 10 µM | > 10 µM | > 10 µM | > 10 µM | –
OC(Cn1cncn1)(Cn1cncn1)c1ccc(F)cc1F [FLUCONAZOLE] | 2.5 µM (≈ 0.766 µg/mL) | > 10 µM | > 10 µM | > 10 µM | > 10 µM | > 10 µM | > 10 µM | > 10 µM | –
Nc1nc(=O)[nH]cc1F [FLUCYTOSINE] | 0.625 µM (≈ 0.0807 µg/mL) | > 10 µM | > 10 µM | > 10 µM | > 10 µM | > 10 µM | > 10 µM | 0.625 µM (≈ 0.0807 µg/mL) | –
O=c1[nH]cc(F)c(=O)[nH]1 [FLUOROURACIL] | > 10 µM | > 10 µM | > 10 µM | > 10 µM | 2.5 µM (≈ 0.325 µg/mL) | > 10 µM | > 10 µM | 5 µM (≈ 0.65 µg/mL) | –
CC(C)n1c(/C=C/C(O)CC(O)CC(=O)O)c(-c2ccc(F)cc2)c2ccccc21 (stereo unspecified) [FLUVASTATIN] | 5 µM (≈ 2.06 µg/mL) | > 10 µM | > 10 µM | > 10 µM | > 10 µM | > 10 µM | > 10 µM | > 10 µM | –
COc1c(N2CCNC(C)C2)c(F)cc2c(=O)c(C(=O)O)cn(C3CC3)c12 (stereo unspecified) [GATIFLOXACIN] | > 10 µM | 0.625 µM (≈ 0.235 µg/mL) | > 10 µM | 1.25 µM (≈ 0.469 µg/mL) | 0.312 µM (≈ 0.117 µg/mL) | ≤ 0.0781 µM | 2.5 µM (≈ 0.939 µg/mL) | > 10 µM | –
